According to patent US20240208992A1, “MACROCYCLES AS CFTR MODULATORS” (Idorsia Pharmaceuticals Ltd, priority 2021, published 2024):

Target: human F508del-CFTR (Homo sapiens, UniProt P13569, DEL508-508)
Assay: F508del-CFTR cell surface expression (corrector activity), DiscoveRx ß-galactosidase complementation chemiluminescence assay in recombinant U2OS cell line;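 also: U2OS cells co-expressing ProLink-tagged F508del-CFTR and a membrane-anchored enzyme acceptor, where more surface CFTR restores β-galactosidase activity measured by chemiluminescence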
Conditions: for EC50: EC50, F508del-CFTR cell surface expression; for Emax: U2OS
[1] = U2OS cells, 16h compound incubation, geomean values
[2] = in relation to Emax of corrector lumacaftor (=100%), arithmetic mean values
[3] = U2OS cells, 16h compound incubation, geomean of several measurements
[4] = in relation to the Emax of the corrector lumacaftor (=100%), U2OS cells, 16h compound incubation, arithmetic mean
[5] = U2OS cell line, 16h compound incubation, geomean values
[6] = in relation to the Emax of the corrector lumacaftor (=100%), U2OS cell line, 16h compound incubation, arithmetic mean values

human F508del-CFTR, sequence (P13569 with tags, fused parts or gaps DEL508-508): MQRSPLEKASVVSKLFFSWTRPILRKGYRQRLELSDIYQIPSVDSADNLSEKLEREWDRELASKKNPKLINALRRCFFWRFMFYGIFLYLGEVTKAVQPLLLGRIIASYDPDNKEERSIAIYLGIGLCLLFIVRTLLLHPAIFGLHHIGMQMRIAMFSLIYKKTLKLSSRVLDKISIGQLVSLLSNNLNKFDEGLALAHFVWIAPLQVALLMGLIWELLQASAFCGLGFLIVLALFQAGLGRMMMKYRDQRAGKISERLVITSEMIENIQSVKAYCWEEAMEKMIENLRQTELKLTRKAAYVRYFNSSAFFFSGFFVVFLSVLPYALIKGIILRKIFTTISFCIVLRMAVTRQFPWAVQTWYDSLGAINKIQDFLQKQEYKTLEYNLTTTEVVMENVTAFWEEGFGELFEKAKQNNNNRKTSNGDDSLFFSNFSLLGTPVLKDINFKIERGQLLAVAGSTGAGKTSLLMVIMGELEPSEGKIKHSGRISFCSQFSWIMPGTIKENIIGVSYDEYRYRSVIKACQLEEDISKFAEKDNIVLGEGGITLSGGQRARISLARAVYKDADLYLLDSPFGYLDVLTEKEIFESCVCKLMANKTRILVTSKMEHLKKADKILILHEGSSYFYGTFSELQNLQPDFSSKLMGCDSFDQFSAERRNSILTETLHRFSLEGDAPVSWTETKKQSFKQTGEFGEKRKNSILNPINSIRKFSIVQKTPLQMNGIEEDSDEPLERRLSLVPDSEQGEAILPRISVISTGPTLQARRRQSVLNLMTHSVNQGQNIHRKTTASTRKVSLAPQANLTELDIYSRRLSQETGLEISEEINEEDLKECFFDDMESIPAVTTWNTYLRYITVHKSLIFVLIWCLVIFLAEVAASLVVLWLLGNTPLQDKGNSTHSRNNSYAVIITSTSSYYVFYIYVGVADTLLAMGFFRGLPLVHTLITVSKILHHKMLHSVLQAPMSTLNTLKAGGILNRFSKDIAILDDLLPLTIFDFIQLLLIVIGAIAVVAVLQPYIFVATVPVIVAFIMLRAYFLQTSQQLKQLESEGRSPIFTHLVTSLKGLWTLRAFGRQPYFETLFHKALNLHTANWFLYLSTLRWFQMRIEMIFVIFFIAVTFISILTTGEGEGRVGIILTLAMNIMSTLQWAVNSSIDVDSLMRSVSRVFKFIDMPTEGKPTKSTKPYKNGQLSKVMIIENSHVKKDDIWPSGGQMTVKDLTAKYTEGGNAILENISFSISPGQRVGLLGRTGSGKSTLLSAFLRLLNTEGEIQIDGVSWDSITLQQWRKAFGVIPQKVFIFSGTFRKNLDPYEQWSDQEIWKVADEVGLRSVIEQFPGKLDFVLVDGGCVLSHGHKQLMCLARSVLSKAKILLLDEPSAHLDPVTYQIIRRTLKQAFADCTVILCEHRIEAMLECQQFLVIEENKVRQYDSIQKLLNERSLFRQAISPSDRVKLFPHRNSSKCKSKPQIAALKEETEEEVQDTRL

COc1cccc(CCNC(=O)[C@@H]2CC(=O)N(C)[C@@H](CC(C)C)C(=O)N(C)[C@@H](COC(C)(C)C)C(=O)N[C@H](Cc3ccccc3)COc3ccc4ccccc4c3C(=O)N2)c1 (mixture of isomers) [Example 717, (3S,7S,10RS,13R)-13-benzyl-10-(tert-butoxymethyl)-7-isobutyl-N-(3-methoxyphenethyl)-6,9-dimethyl-1,5,8,11-tetraoxo-1,2,3,4,5,6,7,8,9,10,11,12,13,14-tetradecahydronaphtho[1,2-p][1]oxa[4,7,10,14]tetraazacycloheptadecine-3-carboxamide]
EC50 [1]: 69 nM | Emax [2]: 348%

COc1cc(CCNC(=O)[C@@H]2CC(=O)N(C)[C@@H](CC(C)C)C(=O)N(C)[C@H](Cc3nc(C(F)(F)F)no3)C(=O)N[C@H](Cc3ccccc3)COc3ccnc(OC)c3C(=O)N2)on1 [Example 948, (3R,6R,9S,13S)-3-benzyl-9-isobutyl-16-methoxy-N-(2-(3-methoxyisoxazol-5-yl)ethyl)-7,10-dimethyl-5,8,11,15-tetraoxo-6-((3-(trifluoromethyl)-1,2,4-oxadiazol-5-yl)methyl)-2,3,4,5,6,7,8,9,10,11,12,13,14,15-tetradecahydropyrido[3,4-p][1]oxa[4,7,10,14]tetraazacycloheptadecine-13-carboxamide]
EC50 [3]: 61 nM | Emax [4]: 501%

COc1cccc(CCNC(=O)[C@@H]2CC(=O)N(C)[C@@H](C)C(=O)N(CCC3CCCCC3)CC(=O)N[C@H](Cc3ccccc3)COc3cccc(OC)c3C(=O)N2)c1 [Example 264, (3R,9S,13S)-3-benzyl-7-(2-cyclohexylethyl)-16-methoxy-N-(3-methoxyphenethyl)-9,10-dimethyl-5,8,11,15-tetraoxo-2,3,4,5,6,7,8,9,10,11,12,13,14,15-tetradecahydrobenzo[p][1]oxa[4,7,10,14]tetraazacycloheptadecine-13-carboxamide]
EC50 [5]: 442 nM | Emax [6]: 117%

COc1cccc(CCNC(=O)[C@@H]2CC(=O)N(C)[C@@H](CC(C)C)C(=O)N3CCN(S(=O)(=O)CCN(C)C)C[C@@H]3C(=O)N[C@H](Cc3ccccc3)COc3ccc4ccccc4c3C(=O)N2)c1 [Example 735, (4aR,7R,18S,22S)-7-benzyl-3-((2-(dimethylamino)ethyl)sulfonyl)-22-isobutyl-N-(3-methoxyphenethyl)-21-methyl-5,16,20,23-tetraoxo-2,3,4,4a,5,6,7,8,16,17,18,19,20,21,22,23-hexadecahydro-1H-naphtho[1,2-p]pyrazino[2,1-f][1]oxa[4,7,10,14]tetraazacycloheptadecine-18-carboxamide]
EC50 [1]: 314 nM | Emax [2]: 176%

[2H]C([2H])([2H])Oc1cccc(CCNC(=O)[C@@H]2CC(=O)N(C)[C@@H](CC(C)C)C(=O)N(C)CC(=O)N[C@H](Cc3ccccc3)COc3cnc4ccccc4c3C(=O)N2)c1 [Example 320, (3S,7S,13R)-13-benzyl-7-isobutyl-N-(3-(methoxy-d3)phenethyl)-6,9-dimethyl-1,5,8,11-tetraoxo-1,2,3,4,5,6,7,8,9,10,11,12,13,14-tetradecahydro-[1]oxa[4,7,10,14]tetraazacycloheptadecino[17,16-c]quinoline-3-carboxamide]
EC50 [5]: 363 nM | Emax [6]: 297%

CC(C)C[C@H]1C(=O)N(C)C2(CC(F)(F)C2)C(=O)N[C@H](Cc2ccccc2)COc2cnc3ccc(F)cc3c2C(=O)N[C@H](C(=O)NCCn2nnc(C3CC3)n2)CC(=O)N1C [Example 838, (3′S,7′S,13′R)-13′-benzyl-N-(2-(5-cyclopropyl-2H-tetrazol-2-yl)ethyl)-3,3,20′-trifluoro-7′-isobutyl-6′,9′-dimethyl-1′,5′,8′,11′-tetraoxo-2′,3′,4′,5′,6′,7′,8′,9′,11′,12′,13′,14′-dodecahydro-1′H-spiro[cyclobutane-1,10′-[1]oxa[4,7,10,14]tetraazacycloheptadecino[17,16-c]quinoline]-3′-carboxamide]
EC50 [3]: 118 nM | Emax [4]: 358%

COc1cccc2c1C(=O)N[C@H](C(=O)NCCc1ccc(-n3cccn3)cc1)CC(=O)N(C)[C@@H](CC(C)C)C(=O)N(CCC1CCCCC1)CC(=O)N[C@H](Cc1ccccc1)CO2 [Example 217, (3R,9S,13S)-N-(4-(1H-pyrazol-1-yl)phenethyl)-3-benzyl-7-(2-cyclohexylethyl)-9-isobutyl-16-methoxy-10-methyl-5,8,11,15-tetraoxo-2,3,4,5,6,7,8,9,10,11,12,13,14,15-tetradecahydrobenzo[p][1]oxa[4,7,10,14]tetraazacycloheptadecine-13-carboxamide]
EC50 [5]: 202 nM | Emax [6]: 135%

COc1cccc(CCNC(=O)[C@@H]2CC(=O)N(C)[C@@H](CC(C)C)C(=O)N3CCCC[C@@H]3C(=O)N[C@H](Cc3ccccc3)COc3cccc(OC)c3C(=O)N2)c1 [Example 591, (7S,11S,20R,22aR)-20-benzyl-7-isobutyl-14-methoxy-N-(3-methoxyphenethyl)-8-methyl-6,9,13,22-tetraoxo-1,3,4,6,7,8,9,10,11,12,13,19,20,21,22,22a-hexadecahydro-2H-benzo[p]pyrido[2,1-f][1]oxa[4,7,10,14]tetraazacycloheptadecine-11-carboxamide]
EC50 [1]: 341 nM | Emax [2]: 259%

COc1cccc(CCNC(=O)[C@@H]2CC(=O)N(C)[C@@H](CC(C)C)C(=O)N(CCC3CCCCC3)CC(=O)N[C@H](Cc3ccccc3)COc3cnccc3C(=O)N2)c1 [Example 266, (3R,9S,13S)-3-benzyl-7-(2-cyclohexylethyl)-9-isobutyl-N-(3-methoxyphenethyl)-10-methyl-5,8,11,15-tetraoxo-2,3,4,5,6,7,8,9,10,11,12,13,14,15-tetradecahydropyrido[4,3-p][1]oxa[4,7,10,14]tetraazacycloheptadecine-13-carboxamide]
EC50 [5]: 357 nM | Emax [6]: 136%

COc1nccc2c1C(=O)N[C@H](C(=O)NCCn1cc(C3CC3)cn1)CC(=O)N(C)[C@@H](CC(C)C)C(=O)N1CCCC[C@@H]1C(=O)N[C@H](Cc1ccccc1)CO2 [Example 179, (7S,11S,17aR,20R)-20-benzyl-N-(2-(4-cyclopropyl-1H-pyrazol-1-yl)ethyl)-11-isobutyl-4-methoxy-10-methyl-5,9,12,18-tetraoxo-5,6,7,8,9,10,11,12,15,16,17,17a,18,19,20,21-hexadecahydro-14H-dipyrido[2,1-f:3′,4′-p][1]oxa[4,7,10,14]tetraazacycloheptadecine-7-carboxamide]
EC50 [5]: 731 nM | Emax [6]: 251%

COc1ccc(CCNC(=O)[C@@H]2CC(=O)N(C)[C@@H](CC(C)C)C(=O)N3CCCC[C@@H]3C(=O)N[C@H](Cc3ccccc3)COc3cnc4ccccc4c3C(=O)N2)cc1F [Example 100, (9S,13S,19aR,22R)-22-benzyl-N-(3-fluoro-4-methoxyphenethyl)-13-isobutyl-12-methyl-7,11,14,20-tetraoxo-7,8,9,10,11,12,13,14,17,18,19,19a,20,21,22,23-hexadecahydro-16H-pyrido[2′,11:6,7][1]oxa[4,7,10,14]tetraazacycloheptadecino[17,16-c]quinoline-9-carboxamide]
EC50 [5]: 184 nM | Emax [6]: 273%

COc1cccc(CCNC(=O)[C@@H]2CC(=O)N(C)[C@@H](CC(C)C)C(=O)N(C)[C@H](C)C(=O)N[C@H](Cc3ccccc3)COc3cnc4ccccc4c3C(=O)N2)c1 [Example 680, (3S,7S,10R,13R)-13-benzyl-7-isobutyl-N-(3-methoxyphenethyl)-6,9,10-trimethyl-1,5,8,11-tetraoxo-1,2,3,4,5,6,7,8,9,10,11,12,13,14-tetradecahydro-[1]oxa[4,7,10,14]tetraazacycloheptadecino[17,16-c]quinoline-3-carboxamide]
EC50 [1]: 448 nM | Emax [2]: 340%

CC(C)C[C@H]1C(=O)N2CCN(C3CC3)C[C@@H]2C(=O)N[C@H](Cc2ccccc2)COc2cnc3ccccc3c2C(=O)N[C@H](C(=O)NCCc2cccc(OC(F)F)c2)CC(=O)N1C [Example 398, (9S,13S,19aR,22R)-22-benzyl-18-cyclopropyl-N-(3-(difluoromethoxy)phenethyl)-13-isobutyl-12-methyl-7,11,14,20-tetraoxo-7,8,9,10,11,12,13,14,17,18,19,19a,20,21,22,23-hexadecahydro-16H-pyrazino[2′,11:6,7][1]oxa[4,7,10,14]tetraazacycloheptadecino[17,16-c]quinoline-9-carboxamide]
EC50 [1]: 125 nM | Emax [2]: 280%

COc1nccc2c1C(=O)N[C@H](C(=O)NCCc1noc(C3CC3)n1)CC(=O)N(C)[C@@H](CC(C)C)C(=O)N(C)[C@H](Cc1nc(-c3ccccc3)no1)C(=O)N[C@H](Cc1ccccc1)CO2 [Example 859, (3R,6R,9S,13S)-3-benzyl-N-(2-(5-cyclopropyl-1,2,4-oxadiazol-3-yl)ethyl)-9-isobutyl-16-methoxy-7,10-dimethyl-5,8,11,15-tetraoxo-6-((3-phenyl-1,2,4-oxadiazol-5-yl)methyl)-2,3,4,5,6,7,8,9,10,11,12,13,14,15-tetradecahydropyrido[3,4-p][1]oxa[4,7,10,14]tetraazacycloheptadecine-13-carboxamide]
EC50 [3]: 36 nM | Emax [4]: 342%

COc1cccc(CCNC(=O)[C@@H]2CC(=O)N(C)[C@@H](CC(C)C)C(=O)N3CCN(S(=O)(=O)CC4CCOCC4)C[C@@H]3C(=O)N[C@H](Cc3ccccc3)COc3ccc4ccccc4c3C(=O)N2)c1 [Example 746, (4aR,7R,18S,22S)-7-benzyl-22-isobutyl-N-(3-methoxyphenethyl)-21-methyl-5,16,20,23-tetraoxo-3-(((tetrahydro-2H-pyran-4-yl)methyl)sulfonyl)-2,3,4,4a,5,6,7,8,16,17,18,19,20,21,22,23-hexadecahydro-1H-naphtho[1,2-p]pyrazino[2,1-f][1]oxa[4,7,10,14]tetraazacycloheptadecine-18-carboxamide]
EC50 [1]: 211 nM | Emax [2]: 213%
